# ChEMBL document CHEMBL4602688, “Bromopyrrole Alkaloids of the Sponge Agelas oroides Collected Near the Israeli Mediterranean Coastline” (J Nat Prod, 2020)
# How the values were obtained:
# Format in all cases: functional, organism-based
# Pseudomonas aeruginosa = assay: Antibiofilm activity against Pseudomonas aeruginosa PAO1 assessed as inhibition of biofilm formation incubated for 24 hrs by crystal violet staining based assay; conditions: PAO1, 24 h
# Kocuria [1] = assay: Growth inhibition of Kocuria isolate Eys10 after 24 hrs; conditions: isolate Eys10, 24 h
# Sporosarcina sp. NB90 = assay: Growth inhibition of Sporosarcina sp. NB90 after 24 hrs; conditions: Sporosarcina sp. NB90, 24 h
# Pseudomonas sp. [2] = assay: Antibiofilm activity against Pseudomonas sp. isolate ISP2_A10pp assessed as inhibition of biofilm formation incubated for 24 hrs by crystal violet staining based assay
# Lysinibacillus [3] = assay: Antibiofilm activity against Lysinibacillus isolate Eys09 assessed as inhibition of biofilm formation incubated for 24 hrs by crystal violet staining based assay; conditions: isolate Eys09, 24 h
# Lysinibacillus [4] = assay: Growth inhibition of Lysinibacillus isolate Eys09 after 24 hrs; conditions: isolate Eys09, 24 h
# Pseudomonas sp. [5] = assay: Antibiofilm activity against Pseudomonas sp. isolate ISP2_Ab assessed as inhibition of biofilm formation incubated for 24 hrs by crystal violet staining based assay
# Pseudomonas sp. [6] = assay: Growth inhibition of Pseudomonas sp. isolate ISP2_A10pp after 24 hrs
# Pseudomonas sp. [7] = assay: Antibiofilm activity against Pseudomonas sp. isolate ISP2_16 assessed as inhibition of biofilm formation incubated for 24 hrs by crystal violet staining based assay; conditions: isolate ISP2_16, 24 h
# Pseudomonas sp. NB86 [8] = assay: Antibiofilm activity against Pseudomonas sp. NB86 assessed as inhibition of biofilm formation incubated for 24 hrs by crystal violet staining based assay; conditions: Pseudomonas sp. NB86, 24 h
# Pseudomonas sp. [9] = assay: Growth inhibition of Pseudomonas sp. isolate ISP2_16 after 24 hrs; conditions: isolate ISP2_16, 24 h
# Pseudomonas sp. NB86 [10] = assay: Growth inhibition of Pseudomonas sp. NB86 after 24 hrs; conditions: Pseudomonas sp. NB86, 24 h
# Pseudomonas sp. [11] = assay: Growth inhibition of Pseudomonas sp. isolate ISP2_Ab after 24 hrs
# Kocuria [12] = assay: Antibiofilm activity against Kocuria isolate Eys10 assessed as inhibition of biofilm formation incubated for 24 hrs by crystal violet staining based assay; conditions: isolate Eys10, 24 h
# Bacillus sp. = assay: Growth inhibition of Bacillus sp. isolate ISP2_A_B after 24 hrs; conditions: Bacillus sp. (in: firmicutes)
smiles,measurement,setting,value
Nc1nc2c([nH]1)c1c(c3[nH]c(N)nc32)[C@H](CNC(=O)c2cc(Br)c(Br)[nH]2)[C@H]1CNC(=O)c1cc(Br)c(Br)[nH]1 [BENZOSCEPTRIN C],IC50,Pseudomonas aeruginosa,10 µM
Nc1ncc(/C=C/CNC(=O)c2cc(Br)c(Br)[nH]2)[nH]1 [OROIDIN],IC50,Kocuria [1],51 µM
same,IC50,Sporosarcina sp. NB90,31 µM
same,IC50,Pseudomonas aeruginosa,5.1 µM
same,IC50,Pseudomonas sp. [2],10 µM
same,IC50,Lysinibacillus [3],7.7 µM
same,IC50,Lysinibacillus [4],77 µM
same,IC50,Pseudomonas sp. [5],3.9 µM
same,IC50,Pseudomonas sp. [6],150 µM
same,IC50,Pseudomonas sp. [7],39 µM
same,IC50,Pseudomonas sp. NB86 [8],57 µM
same,IC50,Pseudomonas sp. [9],170 µM
same,IC50,Pseudomonas sp. NB86 [10],330 µM
same,IC50,Pseudomonas sp. [11],310 µM
same,IC50,Kocuria [12],10 µM
same,IC50,Bacillus sp.,39 µM
NC(=O)c1cc(Br)c(Br)[nH]1,IC50,Pseudomonas aeruginosa,15 µM
